{
  "source": "patent US11850244B2",
  "about": "“Drug delivery systems and methods for treatment of bladder dysfunction or disorder using trospium” (TARIS BIOMEDICAL LLC, priority 2012, dated 2023)",
  "key": {"[1]": {"test_system": "carbachol 30 μM (M1, M2, M3, AChRa2 agonist)", "conditions": "low dose protocol 0.1 and 0.5 μg/mL, intravesical; cited from earlier work"}, "[2]": {"assay": "Antimuscarinic screen in rat bladder perfusion model (plasma, urine and tissue drug levels)", "conditions": "for total recovery: theoretical dose 3.3 mg/day", "description": "The drugs were perfused at varying rates, concentrations, and times. Serial blood and urine samples were taken, and tissues (bladder, ureter, kidney, and prostate) were sampled to determine drug levels and distribution. Tissue histological exams were completed for safety."}, "urothelium": {"test_system": "urothelium", "assay": "Intravesical pharmacology screen in rat bladder perfusion model with acetic acid", "conditions": "for acetic acid induced increased intravesical pressure / inter-contraction intervals compared to the control: 0.05-100 μg/mL intravesical, 0.5% acetic acid; for acetic acid induced increased intravesical pressure: FIGS. 7A-7C; for inter-contraction intervals compared to the control: FIGS. 7D-7F", "protocol": "Intercontraction intervals and intravesical pressure were measured during a control periods and treatment periods.\nThe rats' bladder catheters were connected to a pressure transducer and syringe-pump to allow perfusion. The bladders were perfused (50 μL/minute) with saline for one hour to obtain stable micturition cycles. The perfusion then was switched to a weak acidic solution sufficient to stimulate the noxious receptors in the urothelium without inducing structural or metabolic damage to the tissue. […] A 45 minute baseline was recorded.\nThe vehicle or antimuscarinic drugs were administered intravesically at escalating concentrations (see Table 2 for drugs and concentrations used) with acetic acid instillation (50 μL/minute). Each dose was administered for a 30-minute period. The intravesical pressure and intercontraction interval was recorded during the last 30 minutes of the control period (baseline) and during the 30 minutes of each treatment period, with one treatment period corresponding to one dose of drug."}, "[3]": {"conditions": "oral therapeutic doses for 5 days; cited from earlier work"}, "normal bladder activity": {"test_system": "normal bladder activity", "conditions": "human urine after oral dosing infused into rat bladders; cited from earlier work"}},
  "note": "“Also recorded” adds a separate entry of the source. Counter-ions that a name gives are not always drawn.",
  "data": [
    {"compound": "CCN(CC)CC#CCOC(=O)C(O)(c1ccccc1)C1CCCCC1", "note": "(stereo not drawn) [Oxybutynin, oxybutynin chloride]", "values": [
      {"measurement": "intercontraction interval ratio to baseline", "setting": "[1]", "result": "performed similarly"},
      {"measurement": "systemic absorption following intravesical administration", "setting": "[2]; compared among the three drugs", "result": "significantly higher systemic absorption"},
      {"measurement": "estimated intravesical absorption", "setting": "[2]; rat, in vivo", "result": "83 % of the intravesical dose"},
      {"measurement": "Effective Urine Concentration", "setting": "[2]; rat, intravesical perfusion", "result": "1 to 10", "unit": "µg/mL"},
      {"measurement": "total recovery", "setting": "[2]", "result": "low total recovery"},
      {"measurement": "acetic acid induced increased intravesical pressure", "setting": "urothelium", "result": "dose dependent reductions"},
      {"measurement": "inter-contraction intervals compared to the control", "setting": "urothelium", "result": "neither of which altered intercontraction interval"},
      {"measurement": "inter-contraction intervals compared to the control", "setting": "urothelium; listed as oxybutynin hydrochloride", "result": "little effect"}
    ]},
    {"compound": "dimethindene maleate", "values": [
      {"measurement": "intercontraction interval ratio to baseline", "setting": "[1]", "result": "performed similarly"}
    ]},
    {"compound": "O=C(O[C@H]1C[C@H]2CC[C@@H](C1)[N+]21CCCC1)C(O)(c1ccccc1)c1ccccc1", "note": "[Trospium, trospium chloride]", "values": [
      {"measurement": "active compound excreted in the human's urine", "setting": "[3]", "result": "60-80%"},
      {"measurement": "intercontraction interval ratio to baseline", "setting": "[1]", "result": "performed similarly"},
      {"measurement": "urine concentration", "setting": "[2]; 24-48 hours after exposure", "result": "about 150 μg/mL"},
      {"measurement": "urine concentration", "setting": "[2]; 48-72 hours after exposure", "result": "> 125", "unit": "µg/mL"},
      {"measurement": "Cmax", "setting": "[2]; rat, in vivo", "result": "0.06 to 0.7", "unit": "ng/mL"},
      {"measurement": "Effective Urine Concentration", "setting": "[2]; rat, intravesical perfusion", "result": "1 to 10", "unit": "µg/mL"},
      {"measurement": "Urine to Plasma Ratio", "setting": "[2]; rat, intravesical perfusion", "result": "15,380"},
      {"measurement": "total recovery", "setting": "[2]", "result": "near the theoretical dose"},
      {"measurement": "effect on bladder capacity and intercontraction interval", "setting": "normal bladder activity", "result": "more positive effect"},
      {"measurement": "acetic acid induced increased intravesical pressure", "setting": "urothelium", "result": "dose dependent reductions"},
      {"measurement": "inter-contraction intervals compared to the control", "setting": "urothelium; listed as trospium", "result": "increase intercontraction interval; also recorded: increased the inter-contraction intervals compared to the control"},
      {"measurement": "inter-contraction intervals compared to the control", "setting": "urothelium; listed as trospium chloride", "result": "kept the inter-contraction intervals closer to the baseline measurement"},
      {"measurement": "urinary retention or significant systemic exposure", "setting": "urothelium; at intravesical concentration normalizing urothelial sensory function", "result": "did not produce urinary retention or significant systemic exposure"},
      {"measurement": "concentration range showing activity", "setting": "urothelium; intravesical", "result": "0.05 to 100", "unit": "µg/mL"}
    ]},
    {"compound": "Cc1ccc(O)c([C@H](CCN(C(C)C)C(C)C)c2ccccc2)c1", "note": "[Toterodine, tolterodine tartrate]", "values": [
      {"measurement": "Effective Urine Concentration", "setting": "[2]; rat, intravesical perfusion", "result": "1 to 10", "unit": "µg/mL"},
      {"measurement": "acetic acid induced increased intravesical pressure", "setting": "urothelium", "result": "dose dependent reductions"},
      {"measurement": "inter-contraction intervals compared to the control", "setting": "urothelium; listed as tolterodine", "result": "neither of which altered intercontraction interval"},
      {"measurement": "inter-contraction intervals compared to the control", "setting": "urothelium; listed as tolterodine tartrate", "result": "little effect"}
    ]}
  ]
}
